The text below walks through data of patent US11247970B2, “Selective inhibition of gluconeogenic activity” (Dana-Farber Cancer Institute, Inc., priority 2017, dated 2022).

One experiment deals with HNF4α. Kind of experiment: Transcriptional luciferase reporter assay (Pck1 promoter fragment with HNF4α site) in U-2 OS cells. As to conditions: 24 h. The format is cell-based. As to the method:
U-2 OS cells were transfected with a fixed amount of DNA. After 6 h medium was changed and compound treatment started. The following morning medium was changed again and fresh compound was added for additional 3 h after which cells were collected (24 h post transfection) with 1× Passive Lysis Buffer (Promega). Firefly luciferase reporter was determined by addition of Luciferase Assay Substrate (Dual-Luciferase Reporter Assay System, Promega) and quantification of luminescence on a FLUOstar Omega plate reader (BMG Labtech). CMV-driven Renilla luciferase vector was cotransfected as an internal control. Data are presented as firefly luciferase reporter values normalized to Renilla values and are representative of at least two independent experiments.
The GCN5 acetyl transferase complex decreases PGC-1α gluconeogenic transcriptional activation by interacting with PGC-1α. This is achieved at least in part by reducing the ability of PGC-1α to co-activate the nuclear hormone receptor HNF4α. Co-activation of HNF4α by PGC-1α is required to promote transcription of the gluconeogenic genes Pck1 and G6pc. To test whether SR-18292 reduces the transcriptional activity of HNF4α that is induced by PGC-1α, a luciferase reporter construct driven by a fragment of the Pck1 promoter containing an HNF4α binding site was used. […]

The subject of a further experiment is HFD fed mice. The experiment in a line: Fasting blood glucose in HFD fed mice. The format is in vivo. As to conditions: 45 mg/kg I.P., 3 days and again day 4.
The test system of experiment [1] is Pck1 gene expression in liver. Kind of experiment: qPCR of gluconeogenic genes in liver of treated mice. The format is in vivo. As to conditions: livers from fasted treated mice. As to the method: All mice were purchased from Jackson laboratories and housed under a 12 h light/12 h dark cycle at 22° C. Before handling, mice were allowed to acclimate for at least 1 week in our animal facility. For in vivo studies with DIO mice, males 6-8 weeks old were fed HFD for the indicated time. For drug administration, SR-18292 was re-suspended in a 10% DMSO/10% Tween80/80% PBS solution at a final concentration of 6-12 mg/ml. Metformin was re-suspended in the same solution at a 20 mg/ml concentration. SR-18292 was injected via I.P. for 3 days between 4-5 pm and food was removed on day 3 at 5 pm. […] Metformin was administered via oral gavage. […] Insulin tolerance test was performed following the same dosing protocol, but mice were fasted for 4 hours after the forth injection before performing the test. Insulin was injected via I.P. (0.5 U/Kg) and blood glucose was measured every 20 minutes. Glycemia was measured by tail bleed using a glucometer (OneTouch). […] Total RNA was extracted from cells or pulverized liver using TRIzol reagent (Ambion, Life Technologies), followed by cDNA preparation from 2 μg of total RNA with a High-Capacity cDNA Reverse Transcription Kit (Applied Biosystems). cDNA products were quantified by real-time PCR using Power SYBR Green PCR Master Mix (Applied Biosystems) on a CFX384 Real-Time PCR System (Bio-Rad). […]

The test system of the next experiment is HFD-fed mice. The experiment in a line: Hyperinsulinemic-euglycemic clamp. The format is in vivo. As to the method: Hyperinsulinemic-euglycemic clamps were performed on mice fed HFD for 16 weeks as previously described with minor modifications (Jurczak et al., 2012). Briefly, an indwelling catheter was surgically implanted in the right jugular vein 7 days prior to study. Three days before study, mice were injected with SR-18292 and vehicle control following the same protocol described above. Mice were fasted overnight prior to clamps and then infused with a fixed amount of insulin [4 mU/(kg-min)] and a variable amount of 20% dextrose to maintain euglycemia. [3-H]glucose was included in the infusate to allow for the calculation of whole-body rates of glucose metabolism.

Description for HFD fed mice: All mice were purchased from Jackson laboratories and housed under a 12 h light/12 h dark cycle at 22° C. Before handling, mice were allowed to acclimate for at least 1 week in our animal facility. For in vivo studies with DIO mice, males 6-8 weeks old were fed HFD for the indicated time. […] Metformin was re-suspended in the same solution at a 20 mg/ml concentration. […] Metformin was administered via oral gavage. […] Glycemia was measured by tail bleed using a glucometer (OneTouch). For all experiments, age- and body weight-matched animals were used.
Therefore, blood glucose was measured in the fasted state during which the liver plays a major role maintaining glycemia. […] A high fat diet (HFD) fed mice, a dietary model of obesity and T2D, were used.

As for `Cc1ccc(CN(CC(O)COc2cccc3[nH]ccc23)C(C)(C)C)cc1` (stereo not drawn) [SR-18292, 1-((1H-indol-4-yl)oxy)-3-(tert-butyl(4-methylbenzyl)amino)propan-2-ol], the “transcriptional activity of HNF4α induced by PGC-1α” value in the experiment on HNF4α is listed as “significantly reduced”. Also, the “fasting blood glucose vs vehicle” value in the experiment on HFD fed mice is reported as “significantly lower”. Also, the “gluconeogenic gene expression (Pck1) in liver” value in experiment [1] is recorded as “inhibited”. Further, in the experiment on HFD-fed mice (HFD 16 weeks), the “glucose infusion rate vs vehicle” value is reported as “substantially higher” and the peripheral glucose uptake result was “not due to improved peripheral glucose uptake”. The endogenous glucose production result in the experiment on HFD-fed mice (basal and clamp conditions) is given as “reduced endogenous glucose production”.
